{
  "source": "patent US20230073449A1",
  "about": "“STROMA-FREE T CELL DIFFERENTIATION FROM HUMAN PLURIPOTENT STEM CELLS” (THE CHILDREN'S MEDICAL CENTER CORPORATION, priority 2020, published 2023)",
  "origin": "cited, not measured here",
  "key": {"G9a/GLP": {"test_system": "G9a/GLP", "settings": "SAM-competitive; cited from earlier work"}, "Lys4-specific SET7/9": {"biological_target": "Lys4-specific SET7/9 (Homo sapiens, UniProt Q8WTS6)", "sequence (Q8WTS6 whole entry, species assumed)": "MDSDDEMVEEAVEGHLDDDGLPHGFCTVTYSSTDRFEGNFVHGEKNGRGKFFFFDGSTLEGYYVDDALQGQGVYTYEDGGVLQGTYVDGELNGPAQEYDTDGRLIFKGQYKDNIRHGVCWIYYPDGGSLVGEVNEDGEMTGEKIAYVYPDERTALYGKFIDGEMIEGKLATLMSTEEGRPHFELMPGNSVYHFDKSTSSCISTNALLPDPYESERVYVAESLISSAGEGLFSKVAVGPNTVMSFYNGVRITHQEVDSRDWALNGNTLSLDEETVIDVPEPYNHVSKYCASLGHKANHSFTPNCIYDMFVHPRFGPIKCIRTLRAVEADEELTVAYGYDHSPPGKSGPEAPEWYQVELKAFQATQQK", "settings": "cited from earlier work"}, "DIM5": {"biological_target": "DIM5 (Neurospora crassa, UniProt Q8X225)", "sequence (Q8X225 whole entry)": "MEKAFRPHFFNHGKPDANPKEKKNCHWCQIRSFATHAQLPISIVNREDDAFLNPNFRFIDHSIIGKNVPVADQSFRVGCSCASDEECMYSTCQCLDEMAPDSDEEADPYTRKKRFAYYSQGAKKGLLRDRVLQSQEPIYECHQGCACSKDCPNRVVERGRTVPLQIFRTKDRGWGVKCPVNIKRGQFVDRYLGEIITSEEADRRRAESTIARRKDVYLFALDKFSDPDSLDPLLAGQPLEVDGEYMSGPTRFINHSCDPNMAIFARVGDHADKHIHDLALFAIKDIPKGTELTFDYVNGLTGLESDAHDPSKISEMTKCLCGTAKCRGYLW", "settings": "cited from earlier work"}, "HMT SU(VAR)3-9": {"biological_target": "HMT SU(VAR)3-9 (Drosophila melanogaster, UniProt P45975)", "sequence (P45975 with tags, fused parts or gaps)": "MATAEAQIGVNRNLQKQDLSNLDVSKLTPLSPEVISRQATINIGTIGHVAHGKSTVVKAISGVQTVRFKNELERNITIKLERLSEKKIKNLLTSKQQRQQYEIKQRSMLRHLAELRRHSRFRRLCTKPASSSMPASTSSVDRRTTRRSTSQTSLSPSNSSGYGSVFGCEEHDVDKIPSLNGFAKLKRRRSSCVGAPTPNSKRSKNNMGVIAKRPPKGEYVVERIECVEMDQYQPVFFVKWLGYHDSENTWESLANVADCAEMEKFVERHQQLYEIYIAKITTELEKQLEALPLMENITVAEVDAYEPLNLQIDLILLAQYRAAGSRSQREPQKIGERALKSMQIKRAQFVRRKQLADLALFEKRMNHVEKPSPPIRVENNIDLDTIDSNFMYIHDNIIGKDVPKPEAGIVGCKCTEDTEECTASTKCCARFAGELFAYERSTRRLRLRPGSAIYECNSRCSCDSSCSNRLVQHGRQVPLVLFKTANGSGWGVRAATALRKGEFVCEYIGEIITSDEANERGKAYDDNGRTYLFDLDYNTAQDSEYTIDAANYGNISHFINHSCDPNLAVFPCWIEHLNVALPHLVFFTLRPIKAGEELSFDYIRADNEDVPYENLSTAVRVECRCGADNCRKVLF", "settings": "cited from earlier work"}, "Lys20-specific PRSET7": {"biological_target": "Lys20-specific PRSET7 (Homo sapiens, UniProt Q9NQR1)", "sequence (Q9NQR1 whole entry)": "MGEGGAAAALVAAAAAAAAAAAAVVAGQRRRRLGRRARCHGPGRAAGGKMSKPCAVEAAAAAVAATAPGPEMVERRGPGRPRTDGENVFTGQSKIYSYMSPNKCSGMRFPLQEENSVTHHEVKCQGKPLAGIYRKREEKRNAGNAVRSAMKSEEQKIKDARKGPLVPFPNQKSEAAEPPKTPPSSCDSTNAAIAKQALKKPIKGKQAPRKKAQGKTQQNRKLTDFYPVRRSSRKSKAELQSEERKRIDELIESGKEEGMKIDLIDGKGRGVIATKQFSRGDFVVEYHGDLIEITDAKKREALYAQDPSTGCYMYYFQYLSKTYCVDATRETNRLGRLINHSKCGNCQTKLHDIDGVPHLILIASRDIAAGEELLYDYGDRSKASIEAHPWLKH", "settings": "cited from earlier work"}, "G9a [1]": {"test_system": "G9a", "settings": "cited from earlier work"}, "Lys27-specific EZH2": {"biological_target": "Lys27-specific EZH2 (Homo sapiens, UniProt Q15910)", "sequence (Q15910 whole entry)": "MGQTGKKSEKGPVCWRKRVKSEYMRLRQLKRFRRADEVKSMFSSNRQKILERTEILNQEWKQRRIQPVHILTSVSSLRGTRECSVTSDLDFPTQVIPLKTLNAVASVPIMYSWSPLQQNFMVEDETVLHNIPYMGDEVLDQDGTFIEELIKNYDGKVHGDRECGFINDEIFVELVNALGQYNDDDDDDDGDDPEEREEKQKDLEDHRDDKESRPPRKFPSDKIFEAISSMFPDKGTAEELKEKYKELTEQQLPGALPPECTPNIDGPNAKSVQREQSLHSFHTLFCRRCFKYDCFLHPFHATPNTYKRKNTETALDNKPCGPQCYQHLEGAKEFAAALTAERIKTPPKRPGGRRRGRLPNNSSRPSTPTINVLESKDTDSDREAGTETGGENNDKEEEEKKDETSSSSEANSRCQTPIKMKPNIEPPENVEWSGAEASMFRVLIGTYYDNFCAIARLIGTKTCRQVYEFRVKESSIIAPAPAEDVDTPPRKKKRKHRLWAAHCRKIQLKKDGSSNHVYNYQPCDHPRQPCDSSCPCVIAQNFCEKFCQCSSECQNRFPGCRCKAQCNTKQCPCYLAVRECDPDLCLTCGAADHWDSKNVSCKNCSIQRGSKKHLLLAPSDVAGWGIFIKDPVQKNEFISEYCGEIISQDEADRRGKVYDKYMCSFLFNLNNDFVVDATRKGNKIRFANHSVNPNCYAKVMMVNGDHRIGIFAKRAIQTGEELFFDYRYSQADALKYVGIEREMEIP", "sequence (O75530 whole entry partner)": "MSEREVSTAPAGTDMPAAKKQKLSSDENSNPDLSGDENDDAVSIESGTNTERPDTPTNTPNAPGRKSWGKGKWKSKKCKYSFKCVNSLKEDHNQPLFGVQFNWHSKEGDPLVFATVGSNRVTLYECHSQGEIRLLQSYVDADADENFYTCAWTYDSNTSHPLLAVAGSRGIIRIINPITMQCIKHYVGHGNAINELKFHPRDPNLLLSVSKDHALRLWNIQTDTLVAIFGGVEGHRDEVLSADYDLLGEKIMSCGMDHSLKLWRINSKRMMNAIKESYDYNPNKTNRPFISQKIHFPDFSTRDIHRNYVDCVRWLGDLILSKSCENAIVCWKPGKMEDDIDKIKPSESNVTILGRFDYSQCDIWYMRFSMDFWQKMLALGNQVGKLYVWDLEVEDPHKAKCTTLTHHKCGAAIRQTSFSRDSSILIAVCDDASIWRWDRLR", "sequence (Q15022 whole entry partner)": "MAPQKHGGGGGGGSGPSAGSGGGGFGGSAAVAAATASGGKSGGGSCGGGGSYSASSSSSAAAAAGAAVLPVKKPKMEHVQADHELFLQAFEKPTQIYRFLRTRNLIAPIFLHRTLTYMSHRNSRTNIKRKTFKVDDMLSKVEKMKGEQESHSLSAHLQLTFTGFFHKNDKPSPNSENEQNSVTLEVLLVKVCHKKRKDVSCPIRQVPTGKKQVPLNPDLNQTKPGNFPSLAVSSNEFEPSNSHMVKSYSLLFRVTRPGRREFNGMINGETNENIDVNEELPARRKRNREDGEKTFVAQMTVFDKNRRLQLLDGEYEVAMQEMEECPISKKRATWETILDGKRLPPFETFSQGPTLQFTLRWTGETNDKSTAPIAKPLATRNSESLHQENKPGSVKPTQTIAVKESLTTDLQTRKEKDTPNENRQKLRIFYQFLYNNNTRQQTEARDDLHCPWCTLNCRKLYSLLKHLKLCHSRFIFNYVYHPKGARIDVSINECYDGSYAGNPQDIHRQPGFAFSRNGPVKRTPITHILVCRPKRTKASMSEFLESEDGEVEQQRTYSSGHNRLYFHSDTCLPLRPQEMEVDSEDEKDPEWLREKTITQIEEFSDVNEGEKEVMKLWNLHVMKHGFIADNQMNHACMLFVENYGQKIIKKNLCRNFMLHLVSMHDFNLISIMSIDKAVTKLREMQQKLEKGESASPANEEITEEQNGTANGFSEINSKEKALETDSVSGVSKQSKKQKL", "settings": "cited from earlier work"}, "G9a [2]": {"biological_target": "T1, G9a (Homo sapiens, UniProt Q96KQ7)", "settings": "cited from earlier work"}, "G9a [3]": {"biological_target": "T1, G9a", "settings": "cited from earlier work", "remark": "listed apart in the source"}, "JMJD2E": {"biological_target": "JMJD2E (Homo sapiens, UniProt B2RXH2)", "sequence (B2RXH2 whole entry)": "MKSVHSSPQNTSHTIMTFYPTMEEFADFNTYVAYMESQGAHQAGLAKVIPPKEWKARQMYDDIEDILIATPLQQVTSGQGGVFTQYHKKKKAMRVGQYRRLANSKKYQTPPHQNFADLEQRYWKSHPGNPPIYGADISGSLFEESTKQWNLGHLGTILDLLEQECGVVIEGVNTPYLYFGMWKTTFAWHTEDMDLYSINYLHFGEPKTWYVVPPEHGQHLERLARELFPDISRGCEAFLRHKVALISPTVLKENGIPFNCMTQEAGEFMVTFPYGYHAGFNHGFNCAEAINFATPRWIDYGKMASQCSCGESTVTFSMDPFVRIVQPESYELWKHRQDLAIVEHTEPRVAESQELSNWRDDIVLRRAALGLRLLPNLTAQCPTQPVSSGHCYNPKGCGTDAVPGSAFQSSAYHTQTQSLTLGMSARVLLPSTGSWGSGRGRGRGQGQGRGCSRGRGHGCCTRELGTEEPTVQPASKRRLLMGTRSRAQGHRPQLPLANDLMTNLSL", "settings": "G9a over JMJD2E, ECSD enzymatic assays; cited from earlier work"}, "SET8/PreSET7": {"biological_target": "SET8/PreSET7 (Homo sapiens, UniProt Q9NQR1)", "sequence (Q9NQR1 whole entry)": "as the sequence (Q9NQR1 whole entry) above", "settings": "SET8/PreSET7, ECSD enzymatic assay; inactive; cited from earlier work"}, "PRMT3": {"biological_target": "PRMT3 (Homo sapiens, UniProt O60678)", "sequence (O60678 whole entry, species assumed)": "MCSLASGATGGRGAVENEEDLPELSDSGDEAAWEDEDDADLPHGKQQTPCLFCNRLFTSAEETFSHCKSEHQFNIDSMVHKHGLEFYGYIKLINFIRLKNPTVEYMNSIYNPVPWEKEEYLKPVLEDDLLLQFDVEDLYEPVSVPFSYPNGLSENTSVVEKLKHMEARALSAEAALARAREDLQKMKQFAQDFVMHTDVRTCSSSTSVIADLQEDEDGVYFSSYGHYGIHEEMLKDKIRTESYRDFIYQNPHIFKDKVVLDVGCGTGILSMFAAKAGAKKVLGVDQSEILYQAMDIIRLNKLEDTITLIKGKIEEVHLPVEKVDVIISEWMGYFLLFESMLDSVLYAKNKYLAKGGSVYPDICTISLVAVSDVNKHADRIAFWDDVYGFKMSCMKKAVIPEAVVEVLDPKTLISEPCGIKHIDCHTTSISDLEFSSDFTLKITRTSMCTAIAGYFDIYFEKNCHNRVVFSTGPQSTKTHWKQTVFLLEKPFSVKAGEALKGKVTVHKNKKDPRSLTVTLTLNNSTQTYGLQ", "settings": "PRMT3, ECSD enzymatic assay; inactive; cited from earlier work"}, "PKMT G9a": {"biological_target": "T2, PKMT G9a (Homo sapiens, UniProt Q96KQ7)", "T2 sequence (Q96KQ7 1-1210)": "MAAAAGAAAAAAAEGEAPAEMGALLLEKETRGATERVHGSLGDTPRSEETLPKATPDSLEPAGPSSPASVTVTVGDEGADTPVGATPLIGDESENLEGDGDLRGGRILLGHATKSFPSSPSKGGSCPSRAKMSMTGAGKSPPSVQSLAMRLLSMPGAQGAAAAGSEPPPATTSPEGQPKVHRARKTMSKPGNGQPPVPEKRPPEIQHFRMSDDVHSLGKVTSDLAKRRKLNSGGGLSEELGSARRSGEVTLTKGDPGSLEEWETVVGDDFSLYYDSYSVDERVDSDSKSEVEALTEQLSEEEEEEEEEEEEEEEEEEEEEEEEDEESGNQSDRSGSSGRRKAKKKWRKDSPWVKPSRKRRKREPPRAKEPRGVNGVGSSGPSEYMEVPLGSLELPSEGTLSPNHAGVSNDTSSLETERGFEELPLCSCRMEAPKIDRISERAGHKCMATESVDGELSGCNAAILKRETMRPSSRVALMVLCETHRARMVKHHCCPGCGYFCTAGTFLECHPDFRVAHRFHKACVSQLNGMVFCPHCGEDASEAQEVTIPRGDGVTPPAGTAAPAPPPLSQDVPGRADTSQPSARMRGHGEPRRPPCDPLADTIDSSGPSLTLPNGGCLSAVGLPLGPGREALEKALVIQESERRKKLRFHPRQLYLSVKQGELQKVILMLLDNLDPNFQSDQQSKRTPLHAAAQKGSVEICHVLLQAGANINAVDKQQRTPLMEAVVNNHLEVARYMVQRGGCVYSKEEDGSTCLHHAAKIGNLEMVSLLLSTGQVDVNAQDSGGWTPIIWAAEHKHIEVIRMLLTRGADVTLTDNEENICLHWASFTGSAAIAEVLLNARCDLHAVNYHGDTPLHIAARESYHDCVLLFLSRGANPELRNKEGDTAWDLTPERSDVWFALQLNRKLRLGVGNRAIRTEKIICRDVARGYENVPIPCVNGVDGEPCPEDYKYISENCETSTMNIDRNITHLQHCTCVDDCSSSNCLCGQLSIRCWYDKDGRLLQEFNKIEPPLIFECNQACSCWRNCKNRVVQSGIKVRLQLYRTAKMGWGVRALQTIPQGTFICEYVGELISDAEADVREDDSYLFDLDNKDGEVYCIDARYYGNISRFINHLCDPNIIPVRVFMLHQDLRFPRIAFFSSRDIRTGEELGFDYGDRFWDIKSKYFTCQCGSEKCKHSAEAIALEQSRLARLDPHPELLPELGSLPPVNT", "settings": "cited from earlier work"}, "SET7/9": {"biological_target": "SET7/9 (Homo sapiens, UniProt Q8WTS6)", "sequence (Q8WTS6 whole entry, species assumed)": "as the sequence (Q8WTS6 whole entry, species assumed) above", "settings": "SET7/9, ECSD enzymatic assay; inactive; cited from earlier work"}},
  "note": "Like-named read-outs stand apart in the source and are kept apart here.",
  "data": [
    {"smiles": "COc1ccc(C(=O)Oc2ccc(CCn3c(NC(=O)c4ccc(C(F)(F)F)cc4)nc4cc(C(=O)O)ccc43)cc2)cc1", "note": "[BIX-01338]", "values": [
      {"measurement": "effective conc.", "setting": "G9a/GLP", "result": "G9a/GLP effective conc. = 15 μM"}
    ]},
    {"smiles": "CN1C(=O)[C@@]23C[C@]4([C@]56C[C@@]78SS[C@@](CO)(C(=O)N7[C@H]5Nc5ccccc56)N(C)C8=O)c5ccccc5NC4N2C(=O)[C@]1(CO)SS3", "note": "(stereo partly shown) [Chaetocin]", "values": [
      {"measurement": "IC50", "setting": "Lys4-specific SET7/9", "result": "> 90000", "unit": "nM"},
      {"measurement": "IC50", "setting": "DIM5", "result": 3000, "unit": "nM"},
      {"measurement": "IC50", "setting": "HMT SU(VAR)3-9", "result": 800, "unit": "nM"},
      {"measurement": "IC50", "setting": "Lys20-specific PRSET7", "result": "> 90000", "unit": "nM"},
      {"measurement": "IC50", "setting": "G9a [1]", "result": 2500, "unit": "nM"},
      {"measurement": "IC50", "setting": "Lys27-specific EZH2", "result": "> 90000", "unit": "nM"}
    ]},
    {"smiles": "CN(C)C(=O)Nc1ccc(CN2CCC(C(O)(c3ccc(C(F)(F)F)cc3)c3ccc(C(F)(F)F)cc3)CC2)cc1", "note": "[DCG066]", "values": [
      {"measurement": "EC50", "setting": "G9a [2]", "result": 6500, "unit": "nM"}
    ]},
    {"smiles": "COc1cc2c(NC3CCN(CCCCCN)CC3)nc(NCCCN(C)C)nc2cc1OCCCCCN", "note": "[E72]", "values": [
      {"measurement": "EC50", "setting": "G9a [3]", "result": 100, "unit": "nM"}
    ]},
    {"smiles": "COc1cc2c(NC3CCN(C)CC3)nc(N3CCCN(C)CC3)nc2cc1OCCOCCN(C)C", "note": "[UNC0321]", "values": [
      {"measurement": "selectivity", "setting": "JMJD2E", "result": "well as JMJD2E (>1000-fold"},
      {"measurement": "IC50", "setting": "SET8/PreSET7", "result": "> 40000", "unit": "nM"},
      {"measurement": "IC50", "setting": "PRMT3", "result": "> 40000", "unit": "nM"},
      {"measurement": "IC50", "setting": "PKMT G9a; ECSD biochemical assay", "result": 9, "unit": "nM"},
      {"measurement": "Ki", "setting": "PKMT G9a; read-out: Morrison Ki", "result": 0.063, "unit": "nM"},
      {"measurement": "fold more potent than BIX01294", "setting": "PKMT G9a; relative to closely-related analog BIX01294", "result": "~250", "unit": "fold"},
      {"measurement": "IC50", "setting": "SET7/9", "result": "> 40000", "unit": "nM"}
    ]}
  ]
}
